Reference: BindingDB's records for doi:10.1016/j.bmcl.2009.12.099 (Methylgene, 2010)

Assays:
[1] = Inhibition of c-MET in human A549 cells by wound healing assay
[2] = Inhibition of c-MET in human DU145 cells by scattering assay

IC50 [1] [nM]	IC50 [2] [nM]	SMILES
2000	10000	COc1ccccc1NC(=O)CC(Nc1ccc(Oc2ccnc3cc(-c4cn(C)cn4)sc23)c(F)c1)C(F)(F)F (stereo unspecified) [4,4,4-trifluoro-3-(3-fluoro-4-(2-(1-methyl-1H-imidazol-4-yl)thieno[3,2-b]pyridin-7-yloxy)phenylamino)-N-(2-methoxyphenyl)butanamide]
2000	2000	Cn1cnc(-c2cc3nccc(Oc4ccc(NC(CC(=O)Nc5ccc(F)cc5)C(F)(F)F)cc4)c3s2)c1 (stereo unspecified) [4,4,4-trifluoro-N-(4-fluorophenyl)-3-(4-(2-(1-methyl-1H-imidazol-4-yl)thieno[3,2-b]pyridin-7-yloxy)phenylamino)butanamide]
400	400	Cn1cnc(-c2cc3nccc(Oc4ccc(NC(CC(=O)Nc5ccc(F)cc5)C(F)(F)F)cc4F)c3s2)c1 (stereo unspecified) [4,4,4-trifluoro-3-(3-fluoro-4-(2-(1-methyl-1H-imidazol-4-yl)thieno[3,2-b]pyridin-7-yloxy)phenylamino)-N-(4-fluorophenyl)butanamide]
